{"source": "patent US12611415B2", "about": "“Methods and compounds for treatment of metabolic disease” (Monash University, priority 2019, dated 2026)", "assay_type_in_all_cases": "in vivo, mouse", "key": {"[1]": {"system": "mice with HFD-induced obesity", "experiment": "Dose comparison study of Compound I-1 and celecoxib in HFD mice (FIG. 7)", "excerpt": "Timelines and treatment groups are shown in panel a. (b-c) n=8 (CFD), 8 (CP90), 4, (CP30), 7 (CP10), 4 (Cele30), 5 (Cele 10), 6 (Cele3) and 4 (HFD). (c-d) n=7 (CFD), 7 (CP90), 5, (CP30), 7 (CP10), 5 (Cele30), 7 (Cele 10), 6 (Cele3) and 7 (HFD). (e-f) n=12 (CFD), 8 (CP90), 6 (CP30), 7 (CP10), 7 (Cele30), 8 (Cele 10), and 6 (Cele3), 8 (HFD). (g-h) n=10 (CFD), 8 (CP90), 6 (CP30), 7 (CP10), 6 (Cele30), 8 (Cele 10), and 7 (Cele3), 11 (HFD). (i-j) n=4 (CFD), 7 (CP 90), 7 (CP 10), 7 (Cele 10) and 6 (Cele 3). Statistical differences from one-way ANOVA, compared to CFD (baseline). *p<0.05, **p<0.01, ***p<0.005, ****p<0.001."}, "[2]": {"system": "mice reintroduced to a high-fat diet", "experiment": "HFD rechallenge study (FIG. 9)", "conditions": "Cele-pro (CP30)", "excerpt": "Details regarding treatment times and controls are shown in panel (a). Panels b-e show whole mount immunofluorescence images of the mesenteric afferent lymph vessels and cell nuclei in VAT of several mouse groups. Panels f-i show lymph “leakage” into surrounding VAT due to HFD-induced remodelling of the mesenteric lymphatics, as measured by intramucosal injection of Evans blue dye and lymphangiography. (j-m) n=5 (CFD), 5 (HFD), 6 (HFD rechallenge-Cele-pro (CP30)) and 5-7 (HFD rechallenge-CFD switch). (a-d) n=5 (CFD), 6 (HFD), 8 (HFD rechallenge-Cele-Pro (CP30)) and 7 (HFD rechallenge-CFD switch)."}, "[3]": {"system": "mice with chronic HFD-induced obesity", "experiment": "Chronic HFD-induced obesity model, Compound I-1 versus CFD switch (FIG. 8)", "excerpt": "Details regarding treatment times and controls are shown in panel (a). Panels b-e show lymph “leakage” into surrounding VAT due to HFD-induced remodelling of the mesenteric lymphatics, as measured by intramucosal injection of Evans blue dye and lymphangiography. (f-g) n=2 (CFD), 7 (HFD), 8 (Cele-pro (CP30)) and 5 (CFD switch)."}, "[4]": {"experiment": "Systemic (plasma) exposure of celecoxib after oral gavage", "conditions": "oral gavage 29 mg/kg in lipid based formulation (Compound I-1 equivalent to 8.3 mg/kg celecoxib), fasted mice", "procedure": "To evaluate the systemic exposure of celecoxib and celecoxib prodrug Compound I-1, 29 mg/kg celecoxib or celecoxib prodrug (equivalent to 8.3 mg/kg celecoxib) were administered in a self-emulsifying lipid-based formulation consisting of oleic acid (Sigma Aldrich, Australia)/Cremophor RH40 (Sigma Aldrich, Australia)/ethanol (40:52.6:7.4, w/w/w). Drug and prodrug concentrations in the formulations were confirmed using HPLC-MS/MS as described below.\nIn addition to evaluating lymph uptake of celecoxib and celecoxib prodrug, a pharmacokinetic dose-determining study was conducted to determine a dose of celecoxib and celecoxib prodrug that produce higher lymphatic uptake but lower systemic plasma celecoxib exposure (i.e. lower plasma concentrations over time) after administration of the prodrug. […]\nFor HPLC-MS/MS analysis of celecoxib in plasma after dosing celecoxib or celecoxib prodrug Compound I-1, 200 μL acetonitrile was added to 20 μL samples of plasma and 5 μL of a 1 μg/mL solution of internal standard (5,5-diethyl-1,3-diphenyl-2-iminobarbituric acid) in acetonitrile. Samples were vortexed for 30 seconds and centrifuged at 4,500 g for 5 min, and 80 μL supernatant was analyzed for celecoxib concentration by HPLC-MS. […]"}, "[5]": {"conditions": "Compound I-1 at doses as low as 10 mg/kg (~3 mg/kg celecoxib), ~10-fold lower dose relative to celecoxib"}, "[6]": {"conditions": "various doses of Compound I-1 versus higher corresponding doses of celecoxib"}, "[7]": {"conditions": "chronic HFD-induced obesity models, Cele-pro (CP30)"}}, "note": "Entries after “also recorded” stand apart in the source; their conditions may differ."}
{"compound": "CCCCCCCCCCCCCCCC(=O)OCC(COC(=O)CCCCCCCCCCCCCCC)OC(=O)CCCCCCCCC(=O)Oc1cc(C)cc(C)c1C(C)(C)CC(=O)NS(=O)(=O)c1ccc(-n2nc(C(F)(F)F)cc2-c2ccc(C)cc2)cc1", "note": "[Compound I-1]", "values": [{"measurement": "VAT lymph leakage", "setting": "[1]; [5]", "result": "superior; also recorded: reverses, more effectively"}, {"measurement": "restoration of glycaemic control", "setting": "[1]; [5]", "result": "superior"}, {"measurement": "reversal of VAT lymphangiogenesis (lymph vessel branching)", "setting": "[1]; [5]", "result": "superior; also recorded: reverses, more effectively"}, {"measurement": "reducing fasting plasma triglycerides", "setting": "[1]; compared with a 3-fold higher dose of celecoxib", "result": "superior"}, {"measurement": "HFD-induced obesity, weight", "setting": "[1]; [6]", "result": "reverses, more effectively"}, {"measurement": "changes to lymph composition", "setting": "[1]; [6]", "result": "reverses, more effectively"}, {"measurement": "insulin resistance", "setting": "[1]; [6]", "result": "reverses, more effectively"}, {"measurement": "oral glucose tolerance", "setting": "[1]; [6]", "result": "reverses, more effectively"}, {"measurement": "beneficial effects after reintroducing the mice to a high-fat diet (HFD rechallenge)", "setting": "[2]", "result": "persist"}, {"measurement": "effects on mice on a high-fat diet relative to animals switched to a chow-fat diet", "setting": "[3]; Cele-pro (CP30) versus CFD switch", "result": "comparable"}, {"measurement": "VAT inflammation", "setting": "[3]; [7]", "result": "reverses"}, {"measurement": "insulin resistance", "setting": "[3]; [7]", "result": "reverses"}, {"measurement": "lymphatic dysfunction", "setting": "[3]; [7]", "result": "reverses"}, {"measurement": "plasma concentrations of celecoxib, compared to an equal mass of the parent drug", "setting": "[4]", "result": "lower"}]}
